Each structure is given as a SMILES string. Structures can show the parent of a compound that is named as a salt.

The assay deals with T1, interaction between VCAM-1 and VLA-4 (Homo sapiens, UniProt P05556+P13612).
T1 construct: supplied in their natural form as surface molecules on human U937 cells; host or cells: U937 cells (endogenous VLA-4); The partner hVCAM-1(1-3)-IgG was made in house in transfected COS cells (ATCC CRL1651) and used as culture supernatant
T1 sequence (P13612 34-1032): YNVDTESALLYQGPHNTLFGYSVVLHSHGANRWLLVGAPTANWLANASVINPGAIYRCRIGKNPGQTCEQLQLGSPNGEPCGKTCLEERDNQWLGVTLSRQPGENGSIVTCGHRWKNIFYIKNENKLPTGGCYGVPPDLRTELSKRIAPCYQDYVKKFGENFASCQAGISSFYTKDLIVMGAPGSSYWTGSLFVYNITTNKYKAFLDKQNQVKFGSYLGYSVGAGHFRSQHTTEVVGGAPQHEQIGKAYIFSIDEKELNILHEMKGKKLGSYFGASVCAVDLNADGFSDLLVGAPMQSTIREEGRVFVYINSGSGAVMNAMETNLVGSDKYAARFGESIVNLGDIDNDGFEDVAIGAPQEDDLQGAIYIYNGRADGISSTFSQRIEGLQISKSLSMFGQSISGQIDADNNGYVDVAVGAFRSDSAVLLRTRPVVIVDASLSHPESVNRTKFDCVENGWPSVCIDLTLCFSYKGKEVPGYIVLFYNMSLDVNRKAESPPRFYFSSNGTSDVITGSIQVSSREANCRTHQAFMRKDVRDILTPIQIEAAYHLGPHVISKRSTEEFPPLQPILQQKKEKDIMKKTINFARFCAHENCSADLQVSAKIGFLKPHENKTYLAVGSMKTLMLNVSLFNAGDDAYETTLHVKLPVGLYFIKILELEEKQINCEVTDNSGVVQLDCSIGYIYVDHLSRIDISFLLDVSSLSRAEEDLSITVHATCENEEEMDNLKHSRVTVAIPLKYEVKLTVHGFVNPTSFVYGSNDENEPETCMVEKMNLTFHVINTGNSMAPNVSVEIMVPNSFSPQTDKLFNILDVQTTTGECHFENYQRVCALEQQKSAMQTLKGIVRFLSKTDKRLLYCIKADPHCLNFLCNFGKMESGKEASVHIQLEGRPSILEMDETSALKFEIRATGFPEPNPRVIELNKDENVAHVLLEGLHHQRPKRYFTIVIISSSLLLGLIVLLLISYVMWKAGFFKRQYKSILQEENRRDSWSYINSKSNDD
T1 sequence (P05556 21-798): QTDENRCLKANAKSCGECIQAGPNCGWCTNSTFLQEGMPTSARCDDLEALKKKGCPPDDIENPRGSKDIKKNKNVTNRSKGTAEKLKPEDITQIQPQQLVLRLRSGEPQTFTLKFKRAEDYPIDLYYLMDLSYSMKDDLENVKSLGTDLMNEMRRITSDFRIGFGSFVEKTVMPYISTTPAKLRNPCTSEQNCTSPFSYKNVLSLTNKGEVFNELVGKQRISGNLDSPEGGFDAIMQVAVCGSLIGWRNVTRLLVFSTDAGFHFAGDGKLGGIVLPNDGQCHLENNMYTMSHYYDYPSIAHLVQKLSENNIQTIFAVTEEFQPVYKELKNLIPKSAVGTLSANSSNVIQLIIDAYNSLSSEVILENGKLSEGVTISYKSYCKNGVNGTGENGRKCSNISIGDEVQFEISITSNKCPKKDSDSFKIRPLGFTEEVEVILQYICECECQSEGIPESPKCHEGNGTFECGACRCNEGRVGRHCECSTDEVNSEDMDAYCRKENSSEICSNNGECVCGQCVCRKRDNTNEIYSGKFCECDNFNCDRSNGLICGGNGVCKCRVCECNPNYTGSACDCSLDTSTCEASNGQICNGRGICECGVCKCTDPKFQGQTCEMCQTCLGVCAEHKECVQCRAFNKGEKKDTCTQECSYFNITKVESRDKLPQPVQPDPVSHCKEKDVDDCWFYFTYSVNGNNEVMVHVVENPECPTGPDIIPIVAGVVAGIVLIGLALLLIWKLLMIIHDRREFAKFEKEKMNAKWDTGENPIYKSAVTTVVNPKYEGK
Description: U937/VCAM-1 cell adhesion test (adhesion of U937 cells to hVCAM-1 (1-3)-IgG). The assay is classed as cell-based. As to conditions: inhibition of adhesion of human U937 cells (ATCC CRL 1593) to hVCAM-1 (1-3)-IgG. From the text: A) U937/VCAM-1 Cell Adhesion Test (Assay for Measuring the Adhesion of U937 Cells (ATCC CRL 1593) to hVCAM-1 (1-3)-IqG)
The assay described below which is specific for the interaction between VCAM-1 and VLA-4, is used as the method for testing the activity of the compounds of the formula I on this interaction. The cellular binding partners, that is the VLA-4 integrins, are supplied in their natural form as surface molecules on human U937 cells (ATCC CRL 1593) which belong to the leukocyte group. The specific binding partners employed are recombinantly prepared soluble fusion proteins which consist of the extracytoplasmic domain of human VCAM-1 and the constant region of a human immunoglobulin of the IgG1 subclass.
1. Preparation of Human VCAM-1 (1-3)-IqG and Human CD4-IgG
A gene construct for expressing the extracellular domain of human VCAM-1 linked to the gene sequence for the heavy chain of human immunoglobulin IgG1 (hinge, CH2 and CH3 regions) (from Dr. Brian Seed, Massachusetts General Hospital, Boston, USA; cf. Damle and Aruffo, Proc. Natl. Acad. Sci. USA, 1991, 88:6403) was employed. The soluble fusion protein hVCAM-1 (1-3)-IgG contained the three aminoterminal extracellular immunoglobulin-like domains of human VCAM-1 (Damle and Aruffo, Proc. Natl. Acad. Sci. USA, 1991, 88:6403). CD4-IgG (Zettimeissl et al., DNA and Cell Biology, 1990, 9:347) was used as the fusion protein for negative controls. The recombinant proteins were expressed as soluble proteins following the DEAE/dextran-mediated transfection of DNA into COS cells (ATCC CRL1651) using standard procedures (Ausubel et a., Current protocols in molecular biology, John Wiley & Sons, Inc., 1994).
2. Assay for Measuring the Adhesion of U937 Cells to hVCAM-1 (1-3)-IgG […]
2.6 U937 cells were incubated in Fc receptor blocking buffer for 20 minutes and then pipetted in at a concentration of 1×10^6/mL and in a quantity of 100 μL per well (final volume: 125 μL/well). […]
Regarding `COc1cc(CN2C(=O)N([C@H](CN[C@@H](CC(=O)O)c3ccccc3)CC3CC3)C(=O)C2(C)C)ccc1NC(=O)Nc1ccccc1C` [Example 6, (S)-3-((S)-2-(4,4-Dimethyl-3-(4-(3-(2-methylphenyl)ureido)-3-methoxybenzyl)-2,5-dioxoimidazolidin-1-yl)-3-cyclopropylpropylamino)-3-phenylpropionic acid hydrochloride], the 50% inhibitory concentration (IC50) was found to be 66.2 nM. That is a double-digit nanomolar value.

`COc1cc(CN2C(=O)N([C@H](CN[C@@H](CC(=O)O)c3ccc4c(c3)OCO4)CC3CC3)C(=O)C2(C)C)ccc1NC(=O)Nc1ccccc1C` [Example 17, (S)-3-((S)-2-(4,4-Dimethyl-3-(4-(3-(2-methylphenyl)ureido)-3-methoxybenzyl)-2,5-dioxoimidazolidin-1-yl)-3-cyclopropylpropylamino)-3-(3,4-methylenedioxyphenyl)propionic acid hydrochloride] came in with a 50% inhibitory concentration (IC50) of 24.4 nM.

In the case of `COc1cc(CN2C(=O)N([C@H](CN[C@@H](CC(=O)O)c3ccc(OC)c(OC)c3)CC3CC3)C(=O)C2(C)C)ccc1NC(=O)Nc1ccccc1C` [Example 14, (S)-3-((S)-2-(4,4-Dimethyl-3-(4-(3-(2-methylphenyl)ureido)-3-methoxybenzyl)-2,5-dioxoimidazolidin-1-yl)-3-cyclopropylpropylamino)-3-(3,4-dimethoxyphenyl)propionic acid hydrochloride], the IC50 was found to be 8.2 nM. Against the preceding compound, the IC50 is about 3-fold lower.

What is called IC50 is the concentration at which inhibition is half-maximal. High values mean a need for much substance, low ones inhibition by little substance.

The record behind these values is patent US6962937B2, “Imidazolidine derivatives, their preparation and their use” (Aventis Pharma Deutschland GmbH, priority 2001, dated 2005).
